In ChEMBL document CHEMBL1201862, “PubChem BioAssay data set” (2004):
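Protocol summary: plate cells (96-well), add compound at 5 concentrations, incubate 48 h, interpolate endpoints linearly. Abbreviation: GI50, concentration required for 50% inhibition of growth.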 Calls of active or inactive are those of the source. Rule as the data show it: active = GI50 up to about 1.1 µM and inactive = higher.

Key:
Assay in all cases: NCI anticancer screen, dose series, 48 h
A498 = tested on: A498
M14 = tested on: M14
SNB-75 = tested on: SNB-75
OVCAR-8 = tested on: OVCAR-8
A549 = tested on: A549
CCRF-CEM = tested on: CCRF-CEM
SNB-19 = tested on: SNB-19
Hs-578T = tested on: Hs-578T
ACHN = tested on: ACHN
SR = tested on: SR
MDA-MB-435 = tested on: MDA-MB-435
MCF7 = tested on: MCF7
SF-268 = tested on: SF-268
SW-620 = tested on: SW-620
NCI-H522 = tested on: NCI-H522
T47D = tested on: T47D
HT-29 = tested on: HT-29
UO-31 = tested on: UO-31
HCT-15 = tested on: HCT-15
U-251 = tested on: U-251

Compound	GI50 (A498)	GI50 (M14)	GI50 (SNB-75)	GI50 (OVCAR-8)	GI50 (A549)	GI50 (CCRF-CEM)	GI50 (SNB-19)	GI50 (Hs-578T)	GI50 (ACHN)	GI50 (SR)	GI50 (MDA-MB-435)	GI50 (MCF7)	GI50 (SF-268)	GI50 (SW-620)	GI50 (NCI-H522)	GI50 (T47D)	GI50 (HT-29)	GI50 (UO-31)	GI50 (HCT-15) [µM]	GI50 (U-251)
Cn1c([N+](=O)[O-])cnc1CN1CCN(CCO)CC1	> 100 µM (inactive)	> 100 µM (inactive)	> 100 µM (inactive)	> 100 µM (inactive)	> 100 µM (inactive)	> 100 µM (inactive)	> 100 µM (inactive)	> 100 µM (inactive)	> 100 µM (inactive)	> 100 µM (inactive)	> 100 µM (inactive)	> 100 µM (inactive)	> 100 µM (inactive)	> 100 µM (inactive)	> 100 µM (inactive)	> 100 µM (inactive)	> 100 µM (inactive)	> 100 µM (inactive)	> 100	> 100 µM (inactive)
Cc1cc2c(cc1C)C(=O)/C(=C/c1ccccc1C(=O)O)C2	31.8 µM (inactive)	> 100 µM (inactive)	30 µM (inactive)	38.4 µM (inactive)	67.5 µM (inactive)	30.9 µM (inactive)	34.7 µM (inactive)	34 µM (inactive)	55 µM (inactive)	21.2 µM (inactive)	34.8 µM (inactive)	50 µM (inactive)	31.8 µM (inactive)	46.8 µM (inactive)	65.6 µM (inactive)	47.8 µM (inactive)	39.1 µM (inactive)	50.6 µM (inactive)	36.6	22.9 µM (inactive)
Cc1ccc(NC(=O)NC(=O)c2ccc([N+](=O)[O-])cc2[N+](=O)[O-])cc1Oc1ncc(Cl)cn1	0.5 µM (active)	0.38 µM (active)	0.0752 µM (active)	0.468 µM (active)	0.542 µM (active)	0.292 µM (active)	0.48 µM (active)	0.05 µM (active)	1.33 µM (inactive)	0.409 µM (active)	0.063 µM (active)	0.164 µM (active)	0.713 µM (active)	0.332 µM (active)	0.195 µM (active)	12.7 µM (inactive)	0.3 µM (active)	0.735 µM (active)	0.44	0.208 µM (active)
COC(=O)c1ccc2c(c1)CC1(C2)Cc2cc3c(cc2C1)CCC3	> 100 µM (inactive)	> 100 µM (inactive)	> 100 µM (inactive)	> 100 µM (inactive)	> 100 µM (inactive)	> 100 µM (inactive)	> 100 µM (inactive)	> 100 µM (inactive)	> 100 µM (inactive)	> 100 µM (inactive)	> 100 µM (inactive)	> 100 µM (inactive)	> 100 µM (inactive)	> 100 µM (inactive)	> 100 µM (inactive)	> 100 µM (inactive)	> 100 µM (inactive)	> 100 µM (inactive)	> 100	49.3 µM (inactive)
N#Cc1ncn(-c2ccccc2)c1N	> 100 µM (inactive)	> 100 µM (inactive)	> 100 µM (inactive)	> 100 µM (inactive)	> 100 µM (inactive)	> 100 µM (inactive)	> 100 µM (inactive)	> 100 µM (inactive)	> 100 µM (inactive)	> 100 µM (inactive)	> 100 µM (inactive)	> 100 µM (inactive)	> 100 µM (inactive)	> 100 µM (inactive)	> 100 µM (inactive)	> 100 µM (inactive)	> 100 µM (inactive)	> 100 µM (inactive)	> 100	> 100 µM (inactive)
c1ccc(COCC23CCN(Cc4ccccc4)C(CC(OCc4ccccc4)C2)S3)cc1 (stereo not given)	39.3 µM (inactive)	39.3 µM (inactive)	> 100 µM (inactive)	73.5 µM (inactive)	41.4 µM (inactive)	56.8 µM (inactive)	90.8 µM (inactive)	86.3 µM (inactive)	78.9 µM (inactive)	26.6 µM (inactive)	46 µM (inactive)	14.8 µM (inactive)	73.3 µM (inactive)	> 100 µM (inactive)	29.7 µM (inactive)	26.4 µM (inactive)	25.8 µM (inactive)	30.2 µM (inactive)	28.6	44.8 µM (inactive)
